According to patent US5389621A, “Method of enhancing the anticoagulant effects of aspirin using salicylamide” (University of Medicine and Dentistry of New Jersey, priority 1994, dated 1995):
“Also recorded” adds a separate entry of the source. One block for each molecule: values may come before it.

Assays:
[1] = cited from earlier work; for Absorption (ASA) / bioavailability (SAM) from oral solution vs solid forms: oral solutions vs tablets or suspensions
[2] = Tissue distribution of 14C radioactivity after 14C-salicylamide; assay type: in vivo, male Sprague-Dawley rats
Description: All animals were identified by ear punching. Food and water were provided ad libitum.
Forty-eight rats were divided into two groups.
Each group consisted of 24 rats and was further divided into 4 subgroups, 6 rats each, according to the following scheme:
The rats were fasted overnight. The drug(s) were prepared fresh, dissolved in 2.5 ml of deionized water and administered orally by gavage needle. The rats were allowed water ad libitum before and after the oral administration.
The different treatments were given according to the previous scheme and each rat received an amount of radioactivity equal to […] in the case of radioactive aspirin and 10 μCu in the case of radioactive salicylamide. For the low and high dose ASA treatments 3696 and 1848 dpm ^14 C-ASA/μg total ASA were used respectively. For SAM, 24.4 and 12.2 dpm ^14 C-SAM/ng total SAM were utilized for low and high dose treatments, respectively.
The rats were anesthetized by light diethyl ether inhalation.
The rest of the red blood cells were washed twice by adding 2 ml of physiological saline and were resuspended after each addition. The red blood cells were centrifuged at 3000 rpm (1800×g) for 10 minutes and 300 μl were pipetted in a scintillation vial for measurement of ^14 C radioactivity.
After collecting the blood sample, the rats were sacrificed immediately by a diethyl ether overdose. The following tissues were collected: liver, lung, kidney, heart, spleen, perinephric fat, brain, upper small intestine, stomach, pancreas, bone (femur and tibia), testis, skin and skeletal muscle. A sample of bone marrow was also collected (approximately20 mg).
300 mg tissue samples were placed in scintillation vials and 300 μl of 70% perchloric acid and 600 μl of 30% hydrogen peroxide were added to each vial and also to the vials containing the washed red blood cells aliquots. The vials were incubated at 75° C. for 1 hour in a shaking water bath and were tightly capped to prevent any loss of radioactivity by evaporation.
The vials were left to cool to room temperature for 15 minutes before 10 ml Aquasol-2 scintillation fluid was added to each vial. The total radioactivity was counted in a Beckman model 7500 LS spectrophotometer.

[3] = Plasma kinetics of total 14C after oral 14C-salicylamide alone or with aspirin; assay type: in vivo, male Sprague-Dawley rats; conditions: for AUC.infin. of 14C: mean ± SE, n=6
Description: (§1) Male adult Sprague-Dawley rats (300-325 gm) obtained from Charles River Breeding Laboratory, N. Wilmington, Mass. were quarantined for one week. All animals were identified by ear punching. Food and water were provided ad libitum. The animals were maintained on rodent lab chow diet in a controlled environment with 50% humidity and 12 hour light/dark cycle.
(§2) Two dose combinations were employed. The low dose was 10 and/or 3 mg/kg of ASA and/or SAM, respectively, while the high dose was double the low dose. These doses were approximately equal (w/w) to that in commercially available combinations, e.g., BC® formula, when administered to humans.
(§3) Rats were divided into 2 groups; the first group consisted of 30 rats which were assigned to 5 subgroups, 6 rats each, according to the following treatment scheme:
(§4) The second group consisted of 4 subgroups and were administered double the dose received by the first group (with the exception of subgroup III).
The rats were fasted overnight (~18 hr.) before administration of the treatments and were allowed water ad libitum. The drug(s) to be given were prepared fresh in the morning of the study, dissolved in 2.5 ml of deionized water and gavaged to rats. […]
(§5) The samples were collected by heparinized plastic syringes and transferred to polyethylene test tubes. The samples, ~300 μl each, were rapidly centrifuged at 1800×g for 15 minutes at 4° C.
(§6) The terminal elimination rate constant (ke) was estimated by linear regression of the terminal β phase of the plasma concentration vs. time curves. The area under the curve (AUC.infin.) was calculated by using the trapezoidal method from zero to the last measured plasma concentration. The half-life of elimination (t1/2β) was obtained by the equation t1/2β =0.693/ke.
(§7) Total body clearance (ClT) was estimated by the equation ClT =Dose/AUC assuming a complete absorption of ASA and SAM (Iwamoto et al., 1982; Iwamoto et al., 1983). The apparent volume of distribution Vd was calculated from the formula, Vd =ClT /ke.

[4] = Plasma kinetics of total 14C after oral 14C-aspirin alone or with salicylamide; assay type: in vivo, male Sprague-Dawley rats; conditions: for Effect on AUC.infin. of 14C / Effect on total body clearance (ClT) of 14C: after 14C-ASA; for AUC.infin. of 14C: mean ± SE, n=6
Description: as §1, §2, §3, §4
The rats were fasted overnight (~18 hr.) before administration of the treatments and were allowed water ad libitum. The drug(s) to be given were prepared fresh in the morning of the study, dissolved in 2.5 ml of deionized water and gavaged to rats.
The specific activity of ASA was 739 and 369 dpm/μg for the low and high dose treatments, respectively.
as §5, §6, §7

[5] = ASA 20 mg/kg with 14C-SAM 6 mg/kg
[6] = oral 14C-ASA 10 mg/kg, alone or with SAM 3 mg/kg
[7] = oral 14C-ASA 20 mg/kg, alone or with SAM 6 mg/kg
[8] = 1.5 hr, 14C-SAM 3 mg/kg, alone or with ASA 10 mg/kg
[9] = 1.5 hr, 14C-SAM 6 mg/kg, alone or with ASA 20 mg/kg
[10] = oral 14C-SAM 3 mg/kg, alone or with ASA 10 mg/kg
[11] = oral 14C-SAM 6 mg/kg, alone or with ASA 20 mg/kg

Structure (SMILES): CC(=O)Oc1ccccc1C(=O)O [ASA, acetylsalicylic acid]
Apparent volume of distribution ([1]; children): 0.12 to 0.14 L/kg
Fraction reaching the peripheral circulation intact ([1]; oral aspirin, man): about 68%
Time of peak plasma concentration ([1]; oral soluble aspirin preparation, humans): 15 to 25 min
Absorption (ASA) / bioavailability (SAM) from oral solution vs solid forms [1]: superior
Absorption ([1]; oral, stomach and upper small intestine): rapidly and usually completely absorbed
Change of tissue 14C in RBCs, bone, fat, skin, muscle, heart and others ([2]; 14C-SAM/ASA 3/10 mg/kg vs 14C-SAM alone): enhanced the tissue concentration; also recorded: significant elevation
Change of tissue 14C, high dose ([2]; 14C-SAM/ASA high dose vs 14C-SAM alone, liver, lung, RBCs, and muscle or heart): significantly augmented
Effect of ASA on AUC.infin. of 14C after 14C-SAM [3, 5]: significantly increased
Effect of ASA on elimination half-life of 14C after 14C-SAM [3, 5]: significantly increased
Effect of ASA on SAM kinetics ([3]; ASA low dose 10 mg/kg): did not significantly effect SAM kinetics
Effect of ASA on total body clearance of SAM ([3]; low and high dose combinations): tended to decrease

Duration of the SAM effect on plasma 14C ([4]; following coadministration with 14C-ASA): approximately 4 hours
Increase of Cmax of total 14C by SAM ([4]; high dose 14C-ASA coadministration): ~25%
Effect of SAM on 14C-ASA absorption half-life ([4]; rat, in vivo): no effect
Structure (SMILES): NC(=O)c1ccccc1O [SAM, Salicylamide]
Absorption (ASA) / bioavailability (SAM) from oral solution vs solid forms [1]: superior
Effect on AUC.infin. of 14C [4]: further increased, albeit not significantly
Effect on total body clearance (ClT) of 14C [4]: tended to decrease the ClT after the high dose combination
Effect of SAM coadministration on Cmax / plasma level of total 14C ([4]; with 14C-ASA): enhanced maximum plasma concentration (Cmax) of total ^14 C dose-dependently; also recorded: dose-dependently increases the plasma level of total ^14 C radioactivity

Structure (SMILES): CC(=O)Oc1ccccc1[14C](=O)O [^14 C-ASA]
Effect on AUC.infin. of 14C [4]: showed a dose dependent increase
Effect on total body clearance (ClT) of 14C [4]: decreased dose-dependently
T1/2β of 14C ([4]; high dose, 14C-ASA alone or with SAM): 5.1 h
Elimination half-life of 14C ([4]; low dose of 14C-ASA alone or in combination with SAM, from 6-24 hour plasma concentrations, 10 mg/kg): 2.8 to 3.2 h
AUC4hr of 14C (first 4 hr) [4, 6]: 99.6 ± 10.6 µg·h/mL
C1T total body clearance of 14C [4, 6]: 10.3 ± 1.1 mL/h
Cmax of 14C [4, 6]: 29.9 ± 2.3 µg/mL
T1/2abs absorption half-life of 14C [4, 6]: 9.1 ± 1.1 min
T1/2β elimination half-life of 14C [4, 6]: 3.2 ± 0.2 h
Vd apparent volume of distribution of 14C [4, 6]: 46.1 ± 2.4 mL
AUC.infin. of 14C [4, 6]: 345.7 ± 38.3 µg·h/mL
AUC4hr of 14C (first 4 hr) [4, 7]: 222.2 ± 15.3 µg·h/mL
C1T total body clearance of 14C [4, 7]: 7.7 ± 0.8 mL/h
Cmax of 14C [4, 7]: 65.1 ± 8.2 µg/mL
T1/2abs absorption half-life of 14C [4, 7]: 8.9 ± 0.9 min
Vd apparent volume of distribution of 14C [4, 7]: 85.5 ± 28.1 mL
AUC.infin. of 14C [4, 7]: 810.6 ± 81.7 µg·h/mL

Organs with the highest 14C concentration ([2]; 14C-SAM alone or with ASA, low or high dose): kidney followed by the stomach
14C radioactivity in RBCs [2, 8]: 103 ± 9 ngm/gm tissu
14C radioactivity in blood [2, 8]: 146 ± 20 ngm/gm tissu
14C radioactivity in bone [2, 8]: 60 ± 7 ngm/gm tissu
14C radioactivity in bone marrow [2, 8]: 14 ± 2 ngm/50 mg bone marrow
14C radioactivity in brain [2, 8]: 27 ± 5 ngm/gm tissu
14C radioactivity in fat [2, 8]: 41 ± 8 ngm/gm tissu
14C radioactivity in heart [2, 8]: 44 ± 5 ngm/gm tissu
14C radioactivity in kidney [2, 8]: 665 ± 152 ngm/gm tissu
14C radioactivity in liver [2, 8]: 100 ± 12 ngm/gm tissu
14C radioactivity in lung [2, 8]: 91 ± 11 ngm/gm tissu
14C radioactivity in muscle [2, 8]: 56 ± 7 ngm/gm tissu
14C radioactivity in pancreas [2, 8]: 93 ± 9 ngm/gm tissu
14C radioactivity in plasma [2, 8]: 147 ± 24 ngm/gm tissu
14C radioactivity in skin [2, 8]: 107 ± 10 ngm/gm tissu
14C radioactivity in spleen [2, 8]: 83 ± 20 ngm/gm tissu
14C radioactivity in stomach [2, 8]: 550 ± 154 ngm/gm tissu
14C radioactivity in testis (printed TESUIS) [2, 8]: 63 ± 7 ngm/gm tissu
14C radioactivity in upper small intestine [2, 8]: 130 ± 27 ngm/gm tissu
14C radioactivity in washed RBCs [2, 8]: 77 ± 10 ngm/gm tissu
14C radioactivity in RBCs [2, 9]: 118 ± 22 ngm/gm tissu
14C radioactivity in blood [2, 9]: 198 ± 32 ngm/gm tissu
14C radioactivity in bone [2, 9]: 153 ± 38 ngm/gm tissu
14C radioactivity in bone marrow [2, 9]: 29 ± 17 ngm/50 mg bone marrow
14C radioactivity in brain [2, 9]: 33 ± 1 ngm/gm tissu
14C radioactivity in fat [2, 9]: 130 ± 14 ngm/gm tissu
14C radioactivity in heart [2, 9]: 106 ± 10 ngm/gm tissu
14C radioactivity in kidney [2, 9]: 1358 ± 441 ngm/gm tissu
14C radioactivity in liver [2, 9]: 136 ± 12 ngm/gm tissu
14C radioactivity in lung [2, 9]: 218 ± 12 ngm/gm tissu
14C radioactivity in muscle [2, 9]: 78 ± 3 ngm/gm tissu
14C radioactivity in pancreas [2, 9]: 147 ± 9 ngm/gm tissu
14C radioactivity in plasma [2, 9]: 237 ± 49 ngm/gm tissu
14C radioactivity in skin [2, 9]: 240 ± 11 ngm/gm tissu
14C radioactivity in spleen [2, 9]: 200 ± 26 ngm/gm tissu
14C radioactivity in stomach [2, 9]: 832 ± 217 ngm/gm tissu
14C radioactivity in testis [2, 9]: 155 ± 17 ngm/gm tissu
14C radioactivity in upper small intestine [2, 9]: 268 ± 34 ngm/gm tissu
14C radioactivity in washed RBCs [2, 9]: 92 ± 12 ngm/gm tissu
C1T total body clearance of 14C [3, 10]: 543.7 ± 89.5 mL/h
Cmax of 14C [3, 10]: 1.8 ± 0.3 µg/mL
T1/2β elimination half-life of 14C [3, 10]: 1.1 ± 0.24 h
Vd apparent volume of distribution of 14C [3, 10]: 975 ± 152 mL
AUC.infin. of 14C [3, 10]: 1.9 ± 0.4 μ · hr/ml
C1T total body clearance of 14C [3, 11]: 501.1 ± 64.9 mL/h
Cmax of 14C [3, 11]: 3.7 ± 0.5 µg/mL
T1/2β elimination half-life of 14C [3, 11]: 1.1 ± 0.1 h
Vd apparent volume of distribution of 14C [3, 11]: 824 ± 156 mL
AUC.infin. of 14C [3, 11]: 3.9 ± 0.5 μ · hr/ml
Structure (SMILES): N[14C](=O)c1ccccc1O [^14 C-SAM]
